From DBAASP
In brackets after ≈: the same amount, converted by molar mass. Several values for one entry are separate records, joined by “and”; a condition that tells them apart may be missing. Equal entries are not always repeated.

Legend:
Experiment in all cases: ≥ marks a high value that may be exact or a test limit, other limits are often not marked, values filed in µg/mL are converted to µM
[1] = system: Bacillus anthracis Sterne 34F2
[2] = system: Burkholderia thailandensis
[3] = system: Bacillus subtilis ATCC 9372
[4] = system: Escherichia coli 170
[5] = system: Pseudomonas aeruginosa 4677
[6] = system: Klebsiella pneumoniae 913
[7] = system: Acinetobacter baumannii
[8] = system: Klebsiella pneumoniae 1625
[9] = system: Escherichia coli ATCC 25922
[10] = system: Enterobacter cloacae 2524
[11] = system: Enterobacter cloacae 6780
[12] = system: Escherichia coli 4530
[13] = system: Pseudomonas aeruginosa 5106
[14] = system: Escherichia coli JW3596
[15] = system: Escherichia coli BW25113
[16] = system: Escherichia coli F2513
[17] = system: Micrococcus luteus ATCC 9341
[18] = system: Escherichia coli JW3605
[19] = system: Escherichia coli F470
[20] = system: Pseudomonas aeruginosa ATCC 27853
[21] = system: Staphylococcus aureus 1350
[22] = system: Escherichia coli
[23] = system: Escherichia coli 1342
[24] = system: Cryptococcus neoformans
[25] = system: Klebsiella pneumoniae 1400
[26] = system: Staphylococcus epidermidis
[27] = system: Klebsiella pneumoniae
[28] = system: Pseudomonas aeruginosa 1412
[29] = system: Enterococcus faecium 1299
[30] = system: Escherichia coli 1334
[31] = system: Escherichia coli 1335
[32] = system: Pseudomonas aeruginosa 1411
[33] = system: Salmonella enterica subsp. enterica serovar Typhi
[34] = system: Pseudomonas aeruginosa 1413
[35] = system: Candida albicans ATCC 2002
[36] = system: Staphylococcus haemolyticus
[37] = system: Escherichia coli 1375
[38] = system: Proteus mirabilis
[39] = system: Candida glabrata 0902
[40] = system: Staphylococcus aureus 1307
[41] = system: Serratia marcescens
[42] = system: Staphylococcus aureus ATCC 2592
[43] = system: Proteus vulgaris
[44] = system: Enterococcus faecalis 981
[45] = system: Arcyria cinerea
[46] = system: Stenotrophomonas maltophilia
[47] = system: Staphylococcus aureus 1303
[48] = system: Staphylococcus aureus
[49] = system: Aeromonas sobria
[50] = system: Cutibacterium acnes ATCC 11827

CC[C@H](C)[C@@H]1NC(=O)CNC(=O)[C@H](CO)NC(=O)[C@H](CC(C)C)NC(=O)[C@H](CC(C)C)NC(=O)[C@H](CC(=O)O)NC(=O)[C@@H](NC(=O)[C@@H](NC(=O)[C@H](C)N)[C@@H](C)O)CSSC[C@@H]2NC(=O)[C@H](Cc3ccc(O)cc3)NC(=O)CNC(=O)CNC(=O)[C@H](CCCN=C(N)N)NC(=O)[C@H](CC(N)=O)NC(=O)CNC(=O)[C@H](CCCN=C(N)N)NC(=O)[C@H](Cc3ccccc3)NC(=O)[C@H](C(C)C)NC(=O)[C@@H]3CSSC[C@@H](C(=O)N[C@@H](CCCN=C(N)N)C(=O)N[C@@H](CC(N)=O)C(=O)O)NC(=O)[C@H](C(C)C)NC(=O)[C@H](CSSC[C@H](NC(=O)[C@H](C)NC(=O)[C@H](CO)NC(=O)[C@H](Cc4cnc[nH]4)NC(=O)[C@H](CCC(N)=O)NC(=O)[C@H](C(C)C)NC(=O)CNC1=O)C(=O)N[C@@H](C)C(=O)N[C@@H](CC(C)C)C(=O)N[C@@H](Cc1cnc[nH]1)C(=O)N3)NC(=O)[C@H]([C@@H](C)CC)NC(=O)CNC(=O)[C@H](CCCCN)NC(=O)CNC(=O)[C@H]([C@@H](C)O)NC2=O [ATCDLLSGIGVQHSACALHCVFRGNRGGYCTGKGICVCRN]
MIC [1]: ≥ 79 µM | MIC [2]: ≥ 50 µM | MIC [3]: 7.9 µM (≈ 32.7 µg/mL)

CC[C@H](C)[C@H](N)C(=O)N[C@@H](CCCCN)C(=O)N[C@@H](CO)C(=O)N[C@H](C(=O)N[C@@H](C)C(=O)N[C@@H](CO)C(=O)N[C@@H](CCCCN)C(=O)N[C@H](C(=O)N[C@@H](C)C(=O)N[C@@H](CC(N)=O)C(=O)N[C@H](C(=O)N[C@H](C(=O)N[C@@H](CCC(N)=O)C(=O)N[C@@H](CCCCN)C(=O)N[C@@H](CC(C)C)C(=O)N[C@@H](CCCCN)C(=O)N[C@@H](CCCN=C(N)N)C(=O)N[C@@H](CCCCN)C(=O)N[C@@H](C)C(=O)N[C@@H](CCCCN)C(=O)N[C@@H](CC(N)=O)C(=O)N[C@@H](C)C(=O)N[C@H](C(=O)O)C(C)C)C(C)C)[C@@H](C)O)C(C)C)[C@@H](C)CC [IKSIASKVANTVQKLKRKAKNAV]
MIC [4]: 3.12 µM (≈ 7.79 µg/mL) | MIC [5]: 12.5 µM (≈ 31.2 µg/mL) | MIC [6]: ≥ 50 µM | MIC [7]: 8.84 µM (≈ 22.1 µg/mL) | MIC [8]: 3.12 µM (≈ 7.79 µg/mL) | MIC [9]: 12.5 µM (≈ 31.2 µg/mL) | MIC [10]: ≥ 50 µM | MIC [11]: 25 µM (≈ 62.4 µg/mL) | MIC [12]: 25 µM (≈ 62.4 µg/mL) | MIC [13]: ≥ 50 µM

CC[C@H](C)[C@H](N)C(=O)N[C@@H](CC(C)C)C(=O)N1CCC[C@H]1C(=O)N[C@@H](Cc1c[nH]c2ccccc12)C(=O)N[C@@H](CCCCN)C(=O)N[C@@H](Cc1c[nH]c2ccccc12)C(=O)N1CCC[C@H]1C(=O)N[C@@H](Cc1c[nH]c2ccccc12)C(=O)N[C@@H](Cc1c[nH]c2ccccc12)C(=O)N1CCC[C@H]1C(=O)N[C@@H](Cc1c[nH]c2ccccc12)C(=O)N[C@@H](CCCN=C(N)N)C(N)=O [ILPWKWPWWPWR]
MIC [14]: 2.28 µM (≈ 4 µg/mL) | MIC [15]: 18.3 µM (≈ 32 µg/mL) | MIC [9]: 18.3 µM (≈ 32 µg/mL) | MIC [16]: 6.46 µM (≈ 11.3 µg/mL) | MIC [17]: 0.8 µM (≈ 1.4 µg/mL) | MIC [18]: 18.3 µM (≈ 32 µg/mL) | MIC [19]: 18.3 µM (≈ 32 µg/mL)

CC[C@H](C)[C@H](NC(=O)[C@H](C)NC(=O)[C@H](CCCN=C(N)N)NC(=O)[C@H](Cc1ccc(O)cc1)NC(=O)[C@H](CC(C)C)NC(=O)[C@H](CC(N)=O)NC(=O)[C@H](Cc1ccc(O)cc1)NC(=O)CNC(=O)[C@H](C)NC(=O)[C@@H](NC(=O)[C@@H](NC(=O)[C@@H](NC(=O)[C@H](CCCN=C(N)N)NC(=O)[C@@H](NC(=O)[C@@H](NC(=O)[C@@H](NC(=O)[C@@H]1CCCN1C(=O)[C@H](Cc1c[nH]c2ccccc12)NC(=O)[C@H](Cc1ccccc1)NC(=O)[C@H](CCCN=C(N)N)NC(=O)[C@H](CCCCN)NC(=O)[C@@H](NC(=O)[C@@H](N)CCCN=C(N)N)[C@@H](C)CC)C(C)C)C(C)C)[C@@H](C)CC)[C@@H](C)O)C(C)C)C(C)C)C(=O)N[C@@H](CCCCN)C(=O)N[C@@H](CCCCN)C(=O)N[C@@H](CCCCN)C(=O)O [RIKRFWPVVIRTVVAGYNLYRAIKKK]
MIC [20]: 5.9 µM and > 2.95 µM | MIC [21]: 1.48 µM (≈ 4.7 µg/mL) | MIC [22]: 1.48 µM (≈ 4.7 µg/mL) | MIC [23]: 0.74 µM and 1.48 µM | MIC [24]: 23.6 µM (≈ 75 µg/mL) | MIC [25]: 4.17 µM (≈ 13.2 µg/mL) | MIC [7]: 1.48 µM and 1.05 µM | MIC [26]: 2.95 µM (≈ 9.37 µg/mL) | MIC [27]: 2.95 µM and 5.9 µM | MIC [28]: 2.95 µM and 5.9 µM | MIC [29]: 1.48 µM (≈ 4.7 µg/mL) | MIC [30]: 2.95 µM (≈ 9.37 µg/mL) | MIC [9]: 1.48 µM (≈ 4.7 µg/mL) | MIC [31]: 1.48 µM (≈ 4.7 µg/mL) | MIC [32]: 1.48 µM and 2.95 µM | MIC [33]: 5.9 µM (≈ 18.7 µg/mL) | MIC [34]: 2.95 µM (≈ 9.37 µg/mL) | MIC [35]: 0.18 µM and 0.37 µM | MIC [36]: 0.09 µM (≈ 0.286 µg/mL) | MIC [37]: 2.95 µM (≈ 9.37 µg/mL) | MIC [38]: 1.48 µM (≈ 4.7 µg/mL) | MIC [39]: 5.9 µM (≈ 18.7 µg/mL) | MIC [40]: 2.95 µM (≈ 9.37 µg/mL) | MIC [41]: 31.5 µM and 23.6 µM | MIC [42]: 0.18 µM (≈ 0.572 µg/mL) | MIC [43]: 23.6 µM (≈ 75 µg/mL) | MIC [44]: 2.95 µM and 1.48 µM | MIC [45]: 0.37 µM and 0.74 µM | MIC [46]: 2.95 µM (≈ 9.37 µg/mL) | MIC [47]: 2.95 µM and 1.48 µM | MIC [48]: 0.74 µM and > 0.37 µM | MIC [49]: 1.48 µM (≈ 4.7 µg/mL) | MIC [50]: 0.74 µM (≈ 2.35 µg/mL)
